Where “and” joins values, the source holds several entries; their conditions need not be identical. Equal entries are not always repeated. Structures can show the parent of a compound that is named as a salt.

Data set [1] addresses endogenous human D1-like dopamine receptor in MCF7 cells (Homo sapiens, UniProt P21728). As to conditions: for Intrinsic Activity (% dopamine), Endogenous hD1: normalized to maximal cyclic AMP accumulation with dopamine (FIG. 3A). The procedure:
The data presented in FIG. 2B are the mean±SEM of three independent experiments assayed in duplicate.
The data presented in FIGS. 3B-C are the mean±SEM of three independent experiments assayed in duplicate.
(§1) Cell Culture. […] Cells were grown at 37° C. in a humidified incubator with 6% CO2.
(§2) Cyclic AMP accumulation assay. Assays were performed on confluent monolayers of cells in 48-well plates. […] Cyclic AMP stimulation assays were performed on HEK D1-CRELuc or MCF7 cells by incubating the cells with ligands for 15 minutes at 37° C. Cyclic AMP inhibition assays were performed on HEK-α2C cells in the presence 30 μM forskolin to stimulate cyclic AMP formation. All assays were performed in the presence of 500 μM isobutylmethylxanthine (IBMX) and terminated with ice cold 3% trichloroacetic acid.
(§3) Cyclic AMP binding assay. […] Briefly, cellular lysate (15-20 μL) was added to cyclic AMP binding buffer (100 mM Tris-HCl, pH 7.4, 100 mM NaCl, 5 mM EDTA) in assay tubes containing 1 nM final concentration [^3H]cyclic AMP and bovine adrenal gland cyclic AMP binding protein (100-150 μg in 500 μl binding buffer). The binding assay was incubated on ice at 4° C. for 2-4 hours and terminated by harvesting with ice cold wash buffer (10 mM Tris, 0.9% NaCl) using a 96-well Packard Filtermate cell harvester and Millipore Multiscreen Harvest Plates (Millipore, Billerica, Mass., USA). Packard Microscint O (40 μL) was added to each well after drying. Radioactivity was counted using a Packard Topcount scintillation counter. Standard curves ranging from 0.01 to 300 pmol of cyclic AMP were used to determine the concentration of cyclic AMP in each sample. Data analysis was performed on GraphPad Prism software.

Data set [2] addresses T1, α2C adrenergic receptor (Homo sapiens, UniProt P18825).
T1 construct: expressed in transfected cells; host or cells: HEK293 (HEK-α2C)
T1 sequence (P18825 1-462): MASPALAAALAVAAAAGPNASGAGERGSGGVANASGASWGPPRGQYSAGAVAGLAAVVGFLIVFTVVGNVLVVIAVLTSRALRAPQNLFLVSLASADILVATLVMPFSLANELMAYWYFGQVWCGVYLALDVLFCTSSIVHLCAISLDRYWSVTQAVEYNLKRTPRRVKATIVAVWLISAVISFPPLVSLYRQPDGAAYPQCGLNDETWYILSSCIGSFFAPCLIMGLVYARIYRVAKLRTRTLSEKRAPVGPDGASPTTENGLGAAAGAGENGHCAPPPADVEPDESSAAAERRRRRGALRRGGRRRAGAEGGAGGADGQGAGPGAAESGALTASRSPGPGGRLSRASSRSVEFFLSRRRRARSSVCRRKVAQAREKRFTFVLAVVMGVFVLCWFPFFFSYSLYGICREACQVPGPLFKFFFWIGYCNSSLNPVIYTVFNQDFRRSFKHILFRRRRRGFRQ
Put plainly: NIMH-sponsored Psychoactive Drug Screening Program affinity screen. Format: binding. As to conditions: NIMH PDSP screen.

Data set [3] addresses human dopamine D1 receptor (Homo sapiens, UniProt P21728). As to the kind of experiment: Cyclic AMP accumulation in HEK cells stably expressing the human dopamine D1 receptor (cloned hD1). The settings on record: normalized to maximal cyclic AMP accumulation with dopamine. It counts as cell-based.
Procedure: Cyclic AMP accumulation assay. Assays were performed on confluent monolayers of cells in 48-well plates. […] Cyclic AMP stimulation assays were performed on HEK D1-CRELuc or MCF7 cells by incubating the cells with ligands for 15 minutes at 37° C. […] All assays were performed in the presence of 500 μM isobutylmethylxanthine (IBMX) and terminated with ice cold 3% trichloroacetic acid.
In data set [4] the target is T1, α2C adrenergic receptor. Put plainly: Inhibition of forskolin-stimulated cyclic AMP accumulation in HEK293 cells stably expressing the α2C receptor. The settings on record: for EC50 / Intrinsic Activity (% forskolin), α2C Adrenergic: HEK-α2C cells; for EC50: 30 μM forskolin, 15 min at 37° C.; for Intrinsic Activity (% forskolin), α2C Adrenergic: inhibition of cyclic AMP stimulated by 30 μM forskolin. Format: cell-based.
Excerpt: The data presented have been normalized to the maximal cyclic AMP accumulation observed in the presence of forskolin alone and are the mean±SEM of three independent experiments assayed in duplicate.
Briefly, HEK D1-CreLuc cells were created by a two step process. HEK293 cells were co-transfected with the pBabe Puro and pGL-CreLuc vectors. Puromycin resistant clones, which expressed the functional cyclic AMP response element-linked luciferase reporter gene, were selected. Next, HEK-CreLuc cells were stably transfected with pcDNA3.1 (+)-D1. Clones were assayed for D1 receptor function by measuring cyclic AMP accumulation and luciferase activity. HEK-α2C cells were constructed by stable transfection with pcDNA.3(+)-α2C. G418 resistant clones were selected and assayed for α2C function by measuring inhibition of forskolin-stimulated cyclic AMP accumulation.
as §1, §2, §3

In data set [5] the target is native D1-like dopamine receptors in porcine striatal tissue (Sus scrofa, UniProt P50130). Put plainly: Porcine striatal cyclase assay (cyclic AMP stimulation in striatal homogenate). It counts as biochemical. As to conditions: read-out: intrinsic activity in porcine striatal tissue. The procedure:
as §3
The homogenate was centrifuged at 1,000×g for 10 min at 4° C.

endogenous human D1-like dopamine receptor in MCF7 cells, sequence (P21728 whole entry): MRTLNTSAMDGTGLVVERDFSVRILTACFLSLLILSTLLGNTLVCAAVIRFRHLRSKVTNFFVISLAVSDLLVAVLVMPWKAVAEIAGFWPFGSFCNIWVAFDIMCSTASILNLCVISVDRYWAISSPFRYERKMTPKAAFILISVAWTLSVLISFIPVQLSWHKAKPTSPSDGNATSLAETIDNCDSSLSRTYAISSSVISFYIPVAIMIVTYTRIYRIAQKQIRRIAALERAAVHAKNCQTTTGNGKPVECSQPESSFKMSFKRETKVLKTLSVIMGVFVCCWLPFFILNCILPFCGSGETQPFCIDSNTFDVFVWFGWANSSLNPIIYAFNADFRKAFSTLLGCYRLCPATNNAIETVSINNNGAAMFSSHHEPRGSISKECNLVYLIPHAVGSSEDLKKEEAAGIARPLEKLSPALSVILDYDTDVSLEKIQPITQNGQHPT
human dopamine D1 receptor, sequence (P21728 whole entry): as above
native D1-like dopamine receptors in porcine striatal tissue, sequence (P50130 whole entry): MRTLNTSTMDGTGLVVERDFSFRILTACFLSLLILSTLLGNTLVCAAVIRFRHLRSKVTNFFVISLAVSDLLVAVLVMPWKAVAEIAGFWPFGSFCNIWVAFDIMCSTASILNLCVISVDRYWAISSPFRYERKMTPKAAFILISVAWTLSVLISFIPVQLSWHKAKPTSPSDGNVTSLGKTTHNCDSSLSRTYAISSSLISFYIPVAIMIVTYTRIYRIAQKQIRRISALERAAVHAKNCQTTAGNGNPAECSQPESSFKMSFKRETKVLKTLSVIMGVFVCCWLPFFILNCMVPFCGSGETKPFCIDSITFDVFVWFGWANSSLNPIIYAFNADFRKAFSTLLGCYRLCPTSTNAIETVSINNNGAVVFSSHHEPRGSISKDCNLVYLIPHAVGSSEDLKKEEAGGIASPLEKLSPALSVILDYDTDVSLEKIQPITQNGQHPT

Regarding `Cl.c1ccc2c(c1)CN[C@@H]1COc3cc4c(cc3[C@@H]21)OCO4`, the melting point is 163 °C. Still for that read-out and setting: the value for `Br.Cc1ccc2c(c1)C1c3cc(O)c(O)cc3OCC1NC2` (stereo not drawn) was 195 to 200 °C (dec.). Same read-out and setting: the same measure for `Cl.c1ccc2c(c1)CN[C@H]1COc3cc4c(cc3[C@H]21)OCO4`: 163 °C.

For the compound `Cl.Oc1cc2c(cc1O)C1c3ccccc3CNC1CO2` (racemic) [(±)-ODHX, 2,3-Dihydroxy-6a,7,8,12b-tetrahydro-6H-chromeno[3,4-c]isoquinoline hydrochloride], the “Intrinsic Activity (% dopamine), Endogenous hD1” value in data set [1] worked out at 80 ± 3 % dopamine. The compound also had a Ki in data set [2] of roughly 2 nM. Compound `O=C1N[C@@H]2COc3cc4c(cc3[C@H]2c2ccsc21)OCO4` (racemic) [Example 23, (±)-Trans-9,10-methylenedioxy-5,5a,6,11b-tetrahydro-4H-chromeno[3,4-b]thieno[3,2-d]pyridin-4-one] registered a melting point greater than 250 °C. In the case of `Oc1cc2c(cc1O)[C@H]1c3ccccc3CN[C@@H]1CO2` [(+)-ODHX, (+)-(6aS,12bR)-2,3-Dihydroxy-6a,7,8,12b-tetrahydro-6H-chromeno[3,4-c]isoquinoline hydrochloride], in data set [3] (hydrochloride), the “Intrinsic Activity (% dopamine), Cloned hD1” value was 109±6 % dopamine. In data set [4], the “intrinsic activity as share of the intrinsic activity of (−)-ODHX at α2C receptor” value is listed as “ca. 50%” and a half-maximal effect (EC50) was put at 151 ± 25 nM. The “Intrinsic Activity (% forskolin), α2C Adrenergic” value (shortened to “Intrinsic Activity (% forskolin)”) in data set [4] (hydrochloride) was 34±6 % forskolin and 34 ± 7 % forskolin. Moreover, in data set [5], the Emax came out at 115 ± 15%. Also, in data set [1], the “Intrinsic Activity (% dopamine), Endogenous hD1” value was determined as 131 ± 13 % dopamine. Turning to `Cl.Oc1cc2c(cc1O)[C@@H]1c3ccccc3CN[C@H]1CO2` [(−)-ODHX, (−)-(6aR,12bS)-2,3-Dihydroxy-6a,7,8,12b-tetrahydro-6H-chromeno[3,4-c]isoquinoline hydrochloride], the “Intrinsic Activity (% dopamine), Cloned hD1” value in data set [3] is 85 ± 6 % dopamine. In addition, in data set [4], a half-maximal effect (EC50) was put at 4.4 nM and the “Intrinsic Activity (% forskolin)” value worked out at 69 ± 2 % forskolin. Also, the “effect alone on cyclic AMP levels” value in data set [1] (10 μM alone) is on record as “significant increase in cyclic AMP levels”. For the same compound, the “antagonism of dopamine- and (+)-ODHX-stimulated cyclic AMP accumulation” value in data set [1] (dose-response curves in presence of 10 μM (−)-ODHX (FIGS. 3B-C)) was “reduced the intrinsic activity and potency of both dopamine and (+)-ODHX”. As for `Clc1cccc(Cl)c1N=C1NCCN1` [Clonidine, reference compound], the “Intrinsic Activity (% forskolin)” value in data set [4] worked out at 61 ± 5 % forskolin.

`C1=NC2COc3cc4c(cc3C2c2ccccc21)OCO4` (stereo not drawn) [Example 5, 2,3-Methylenedioxy-6a,12b-dihydro-6H-chromeno[3,4-c]isoquinoline] yielded a melting point of 191 °C.

Turning to `c1ccc2c(c1)CNC1COc3cc4c(cc3C21)OCO4` (stereo not drawn) [Example 6, 2,3-Methylenedioxy-6a,7,8,12b-tetrahydro-6H-chromeno[3,4-c]isoquinoline], the melting point came out at 188 °C.

As to `Cc1ccc2c(c1)C1c3cc4c(cc3OCC1NC2=O)OCO4` (stereo not drawn) [Example 16, 2,3-methylenedioxy-11-methyl-6a,7-dihydro-6H-12bH-chromeno[3,4-c]isoquinolin-8-one], the melting point was greater than 250 °C.

Usually melting point stands for the temperature of the solid-liquid transition. What is called Ki is the dissociation constant of the complex between target and ligand, obtained from inhibition or displacement. Read a high Ki as lower affinity. A word on the EC50: it is the concentration giving half of the maximal effect. A higher EC50 goes with weaker potency.

Values taken from patent US8318938B2, “Trans-fused chromenoisoquinolines synthesis and methods for use” (Purdue Research Foundation, priority 2006, dated 2012).
